Data reported in publication PMC7126728 (Bioorganic & Medicinal Chemistry, 2015).

What was measured:
VZV = assay type: cell-based, varicella zoster virus; details: HEL cell cultures
HCMV = assay type: cell-based, human cytomegalovirus; details: HEL cell cultures

With `O=C(Cn1c(=O)ccn(CCCCOCc2ccc(Br)cc2)c1=O)Nc1ccc(Oc2ccccc2)cc1` [Compound 17, 2-[3-[4-(4-Bromobenzyloxy)butyl]-2,6-dioxo-3,6-dihydropyrimidin-1(2H)-yl]-N-(4-phenoxyphenyl)acetamide] as the molecule, how does the “anti-VZV activity (in words)” value (VZV) read?
The value was “loss of activity”.

With `O=C(Cn1c(=O)ccn(Cc2ccc(Oc3ccc(Br)cc3)cc2)c1=O)Nc1ccc(Oc2ccccc2)cc1` [Compound 23, 2-[3-[4-(4-Bromophenoxy)benzyl]-2,6-dioxo-3,6-dihydropyrimidin-1(2H)-yl]-N-(4-phenoxyphenyl)acetamide] as the molecule, how does the “anti-VZV activity (in words)” value (VZV) read?
Its value is “loss of activity”.

What does the source list for `O=C(Cn1c(=O)c(I)cn(CCCCCOc2ccc(Br)cc2)c1=O)Nc1ccc(Oc2ccccc2)cc1` [Compound 7j, 2-[3-[5-(4-Bromophenoxy)pentyl]-5-iodo-2,6-dioxo-3,6-dihydropyrimidin-1(2H)-yl]-N-(4-phenoxyphenyl)acetamide]?
anti-HCMV activity (in words) (HCMV): completely inactive; anti-VZV activity (in words) (VZV): completely inactive

How did the “anti-VZV activity (in words)” value (VZV) turn out when `O=C(Cn1c(=O)ccn(CCCCCOc2ccccc2)c1=O)Nc1ccc(Oc2ccccc2)cc1` [Compound 7a, 2-[2,6-Dioxo-3-(5-phenoxypentyl)-3,6-dihydropyrimidin-1(2H)-yl]-N-(4-phenoxyphenyl)acetamide] was run?
Its value is “inactive”.

Which results are given for `O=C(Cn1c(=O)ccn(COCCOCc2ccc(Br)cc2)c1=O)Nc1ccc(Oc2ccccc2)cc1` [Compound 20, 2-[3-[[2-(4-Bromobenzyloxy)ethoxy]methyl]-2,6-dioxo-3,6-dihydropyrimidin-1(2H)-yl]-N-(4-phenoxyphenyl)acetamide]?
anti-HCMV activity (in words) (HCMV): completely inactive; anti-VZV activity (in words) (VZV): loss of activity

Which results are given for `O=C(Cn1c(=O)ccn(CCCCCCc2ccccc2)c1=O)Nc1ccc(Oc2ccccc2)cc1` [Compound 13, 2-[2,6-Dioxo-3-(6-phenylhexyl)-3,6-dihydropyrimidin-1(2H)-yl]-N-(4-phenoxyphenyl)acetamide]?
anti-HCMV activity (in words) (HCMV): loss of activity; anti-VZV activity (in words) (VZV): loss of activity
